The results in this text go back to ChEMBL document CHEMBL3992495, “Aliphatic and alicyclic camphor imines as effective inhibitors of influenza virus H1N1” (Eur J Med Chem, 2017).

Data set [1] in a line: Antiviral activity against Influenza A virus (A/California/07/09(H1N1)) infected in MDCK cells assessed as inhibition of viral replication after 48 hrs by hemagglutination test. The data set is classed as functional, Influenza A virus (A/California/07/2009(H1N1)). Particulars: read-out: ED50 (the source's name).
A short description of data set [2]: Cytotoxicity against MDCK cells after 48 hrs by MTT assay. The data set is classed as cell-based, Canis lupus familiaris. The note with it: dog, read-out: CTD50.
Data set [3] deals with Influenza A virus (A/Puerto Rico/8/34(H1N1)). The experiment in a line: Selectivity index, ratio of CTD50 for MDCK cells to ED50 for Influenza A virus (A/Puerto Rico/8/34(H1N1)). The note with it: dog, read-out: Selectivity Index. The data set is classed as toxicity.
The subject of data set [4] is Influenza A virus (A/California/07/09(H1N1)). The experiment in a line: Selectivity index, ratio of CTD50 for MDCK cells to ED50 for Influenza A virus (A/California/07/09(H1N1)). The note with it: dog, read-out: Selectivity Index. The class given is toxicity.
Data set [5] deals with Influenza A virus. The experiment in a line: Antiviral activity against Influenza A virus (A/Puerto Rico/8/34(H1N1)) infected in MDCK cells assessed as inhibition of viral replication after 48 hrs by hemagglutination test. The class given is functional. The note with it: A/Puerto Rico/8/1934(H1N1), read-out: ED50 (the source's name).

Structures can show the parent of a compound that is named as a salt.

`CCCCCC/N=C1\C[C@H]2CC[C@]1(C)C2(C)C`: the EC50 worked out at 26 µM in data set [1] (Influenza A virus, MDCK, 48 h) and 29.8 µM in data set [5]. The CC50 at 48 h in data set [2] stood at 468 µM. The selectivity ratio in data set [3] was 16; in data set [4], 18.

For `CCCCC/N=C1\C[C@H]2CC[C@]1(C)C2(C)C`, the EC50 in data set [1] (Influenza A virus, MDCK, 48 h) worked out at 7.7 µM; in data set [5], 12.2 µM. Moreover, in data set [2], the CC50 at 48 h came out at 801 µM. The values for the selectivity ratio in data set [3] and in data set [4] were 66 and 104, respectively.

Take `CC1(C)[C@@H]2CC[C@@]1(C)/C(=N/CCO)C2`: the EC50 in data set [1] (Influenza A virus, MDCK, 48 h) came out at 5 µM. In addition, the CC50 at 48 h in data set [2] was 2500 µM. The selectivity ratio in data set [4] came out at 500.

For the molecule `CCCCCCC/N=C1\C[C@H]2CC[C@]1(C)C2(C)C`, the EC50 in data set [1] (Influenza A virus, MDCK, 48 h) was determined as 1.4 µM; in data set [5] it was 4.8 µM. The CC50 at 48 h in data set [2] came to 234 µM. Moreover, the selectivity ratio in data set [3] was determined as 49; in data set [4], 171.

Take `NC12CC3CC(CC(C3)C1)C2` [AMANTADINE]: the EC50 in data set [1] (Influenza A virus, MDCK, 48 h) is 64.2 to 70 µM; in data set [5] it was 72.8 µM. For the same molecule, the CC50 at 48 h in data set [2] lay within 280 to 284 µM. Moreover, the selectivity ratio in data set [3] and in data set [4] was 4 in each case.

Consider `CCCC/N=C1\C[C@H]2CC[C@]1(C)C2(C)C`, for which the EC50 was 7.7 µM in data set [1] (Influenza A virus, MDCK, 48 h) and 5.8 µM in data set [5]. Further, the CC50 at 48 h in data set [2] stood at 2420 µM. For the same molecule, the selectivity ratio in data set [3] is 417; in data set [4] it was 312.

Consider `CCCCCCCCCCCC/N=C1\C[C@H]2CC[C@]1(C)C2(C)C`, for which the EC50 in data set [1] (Influenza A virus, MDCK, 48 h) was 15.7 µM; in data set [5] it was more than 37.6 µM. Further, the CC50 at 48 h in data set [2] turned out to be 62.1 µM. The selectivity ratio was less than 2 in data set [3] and 4 in data set [4].

Take `CCCCCCCCCCCCCCCCCC/N=C1\C[C@H]2CC[C@]1(C)C2(C)C`: the EC50 in data set [1] (Influenza A virus, MDCK, 48 h) was 744 µM; in data set [5], more than 744 µM. Moreover, the CC50 at 48 h in data set [2] is more than 744 µM. In addition, the selectivity ratio was less than 1 in data set [3] and more than 1 in data set [4].

As to `CC1(C)[C@@H]2CC[C@@]1(C)/C(=N/C1CCCCC1)C2`, the EC50 in data set [1] (Influenza A virus, MDCK, 48 h) amounted to 55.4 µM; in data set [5] it was 15.5 µM. Further, the CC50 at 48 h in data set [2] was more than 1290 µM. The selectivity ratio in data set [3] was more than 83; in data set [4], more than 23.

With `CCCCCCCCCC/N=C1\C[C@H]2CC[C@]1(C)C2(C)C`, the EC50 in data set [1] (Influenza A virus, MDCK, 48 h) came out at 17.2 µM; in data set [5], 10.3 µM. Also, in data set [2], the CC50 at 48 h stood at 50.9 µM. Moreover, the selectivity ratio stood at 5 in data set [3] and 3 in data set [4].

Consider `CC12CCC(CC1=O)C2(C)C` (centres undefined) [CAMPHOR], for which the EC50 in data set [1] came to 1640 µM; in data set [5], 1450 µM. The selectivity ratio in data set [3] and in data set [4] was 2 in each case.

With `CC(N)[C@@H]1C[C@H]2CC[C@@H]1C2` (some centres undefined), the EC50 in data set [1] (Influenza A virus, MDCK, 48 h) is 206 to 209 µM; in data set [5], 230 µM. Moreover, the CC50 at 48 h in data set [2] was in the range of 1260 to 1270 µM.

Regarding `CCCCCCCC/N=C1\C[C@H]2CC[C@]1(C)C2(C)C`, the EC50 in data set [1] (Influenza A virus, MDCK, 48 h) came out at 64.6 µM; in data set [5], 9.9 µM. Moreover, in data set [2], the CC50 at 48 h was found to be 97.3 µM. Besides, the selectivity ratio is 10 in data set [3] and 2 in data set [4].

On to `CCC/N=C1\C[C@H]2CC[C@]1(C)C2(C)C`, for which the EC50 came out at 19.7 µM in data set [1] (Influenza A virus, MDCK, 48 h) and 4.1 µM in data set [5]. In addition, in data set [2], the CC50 at 48 h was more than 2590 µM. The selectivity ratio in data set [3] is more than 632; in data set [4], more than 131.

Regarding `CC1(C)[C@@H]2CC[C@@]1(C)/C(=N/C1CC1)C2`, the EC50 in data set [1] (Influenza A virus, MDCK, 48 h) amounted to 592 µM; in data set [5], 738 µM. Further, in data set [2], the CC50 at 48 h worked out at 1660 µM. For the same molecule, the selectivity ratio in data set [3] came to 2; in data set [4], 3.

For `CC(N)C12CC3CC(CC(C3)C1)C2` (centres undefined) [RIMANTADINE HYDROCHLORIDE], the EC50 was determined as 67 µM in data set [1] (Influenza A virus, MDCK, 48 h) and 83.8 µM in data set [5]. Further, the selectivity ratio worked out at 4 in data set [3] and 5 in data set [4].
